# Experiments:
# [1] = tested on: pSTAT5 and pERK in patient-derived AML cells; experiment: Cytokine-induced pSTAT5 and pERK in patient-derived AML cells; type: cell-based, human; conditions: for pERK relative expression, FOLD / pSTAT5 relative expression, FOLD: fold over unstimulated; for pSTAT5 FOLD: relative expression vs Unstimulated
# Method: All bone marrow or peripheral blood samples from patients with AML were collected after informed consent, in accordance with guidelines approved by the Human Research Ethics Committee of Alfred Health. Human AML cells were thawed, washed, and adjusted to 2 × 10^6 cells/mL in Iscove’s Modified Dulbecco’s Media (#12440053, Gibco, Grand Island NY, USA) supplemented with Glutamax 2 mM (Gibco) and 1% v/v Penicillin/Streptomycin (Gibco). […] For cytokine-mediated signalling assays, cells were incubated with vehicle or Dynole 34-2 for 1 h, and subsequently stimulated with either 25 ng/mL rhIL-3 (#200-03, Pepro Tech), 25 ng/mL rhGM-CSF (#300-03, Pepro Tech) or 125 ng/mL rhSCF (#300-07, Pepro Tech) at 37 °C for 20 min. Cells were washed twice using cold PBS 1× and flow cytometry analyses were done on single-cell suspensions using BD Pharmingen antibodies against human CD45 (#557748), IL-3R (CD123, #560087), GM-CSFR alpha chain (CD116, #554532) and BioLegend antibody against human KIT (A3C6E2). For assessing intracellular levels of pSTAT5 and phospho-ERK, flow cytometry analyses were performed in duplicate on patient-derived AML cells as described in the FACS analysis section. The MFI observed without stimulation was reported as 1.
# [2] = Clonogenic assay of human CD34-positive HSPCs from healthy donors, 10 days (LC50); type: cell-based; conditions: human
# Method: Cultures were incubated at 37 °C in 10% CO2 for 10 days in presence of 10 μg/mL rhIL-3 (#200-03, Pepro Tech), 25 μg/mL rhSCF (#300-07, Pepro Tech), 25 μg/mL rhFLT3-L (#300-19, Pepro Tech), rhIL-6 (#200-06, Pepro Tech), 500 nM StemRegenin 1 (SR1; #1227633-49-9, Stem Cell Technologies) and 35 nM UM-171 (#72914, Stem Cell Technologies)[93],[94], then stained with acetyl-cholinesterase and counted for the number of colonies.
smiles,measurement,setting,value
"CCCCCCCCNC(=O)C(C#N)=Cc1cn(CCCN(C)C)c2ccccc12 [Dynole 34-2, 2-Cyano-N-octyl-3-(1-(3-dimethylaminopropyl)-1H-indol-3-yl)-acrylamide]","pERK relative expression, MFI",[1]; AML01-021,1807 MFI
same,"pSTAT5 relative expression, MFI",[1]; AML01-021,4941 MFI
same,pStat5 (MFI),[1]; AML01-021,2538 MFI
same,"pERK relative expression, FOLD",[1]; AML01-021,1.07 FOLD
same,"pSTAT5 relative expression, FOLD",[1]; AML01-021,1.87 FOLD
same,pSTAT5 FOLD,[1]; AML01-021,1.02
same,"pERK relative expression, MFI",[1]; AML01-050,10447 MFI
same,"pSTAT5 relative expression, MFI",[1]; AML01-050,19500 MFI
same,pStat5 (MFI),[1]; AML01-050,29884 MFI
same,"pERK relative expression, FOLD",[1]; AML01-050,1.28 FOLD
same,"pSTAT5 relative expression, FOLD",[1]; AML01-050,0.97 FOLD
same,pSTAT5 FOLD,[1]; AML01-050,0.84
same,"pERK relative expression, MFI",[1]; AML01-072,2195 MFI
same,"pSTAT5 relative expression, MFI",[1]; AML01-072,18325 MFI
same,pStat5 (MFI),[1]; AML01-072,10160 MFI
same,"pERK relative expression, FOLD",[1]; AML01-072,1.01 FOLD
same,"pSTAT5 relative expression, FOLD",[1]; AML01-072,0.91 FOLD
same,pSTAT5 FOLD,[1]; AML01-072,0.88
same,"pERK relative expression, MFI",[1]; AML01-226,1574 MFI
same,"pSTAT5 relative expression, MFI",[1]; AML01-226,673 MFI
same,pStat5 (MFI),[1]; AML01-226,511 MFI
same,"pERK relative expression, FOLD",[1]; AML01-226,1.05 FOLD
same,"pSTAT5 relative expression, FOLD",[1]; AML01-226,0.89 FOLD
same,pSTAT5 FOLD,[1]; AML01-226,1.01
same,"pERK relative expression, MFI",[1]; AML01-307,2891 MFI
same,"pSTAT5 relative expression, MFI",[1]; AML01-307,12933 MFI
same,pStat5 (MFI),[1]; AML01-307,10786 MFI
same,"pERK relative expression, FOLD",[1]; AML01-307,1.06 FOLD
same,"pSTAT5 relative expression, FOLD",[1]; AML01-307,1.07 FOLD
same,pSTAT5 FOLD,[1]; AML01-307,1.08
same,"pERK relative expression, MFI",[1]; AML02-078,5047 MFI
same,"pSTAT5 relative expression, MFI",[1]; AML02-078,31582 MFI
same,pStat5 (MFI),[1]; AML02-078,31914 MFI
same,"pERK relative expression, FOLD",[1]; AML02-078,0.79 FOLD
same,"pSTAT5 relative expression, FOLD",[1]; AML02-078,1.24 FOLD
same,pSTAT5 FOLD,[1]; AML02-078,1.05
same,"pERK relative expression, MFI",[1]; AML02-123,4380 MFI
same,"pSTAT5 relative expression, MFI",[1]; AML02-123,22757 MFI
same,pStat5 (MFI),[1]; AML02-123,30741 MFI
same,"pERK relative expression, FOLD",[1]; AML02-123,1.16 FOLD
same,"pSTAT5 relative expression, FOLD",[1]; AML02-123,1.15 FOLD
same,pSTAT5 FOLD,[1]; AML02-123,1.00
same,"pERK relative expression, MFI",[1]; AML02-232,1644 MFI
same,"pSTAT5 relative expression, MFI",[1]; AML02-232,1406 MFI
same,pStat5 (MFI),[1]; AML02-232,688 MFI
same,"pERK relative expression, FOLD",[1]; AML02-232,1.04 FOLD
same,"pSTAT5 relative expression, FOLD",[1]; AML02-232,1.59 FOLD
same,pSTAT5 FOLD,[1]; AML02-232,0.73
same,"pERK relative expression, MFI",[1]; AML03-330,10652 MFI
same,"pSTAT5 relative expression, MFI",[1]; AML03-330,5650 MFI
same,pStat5 (MFI),[1]; AML03-330,6696 MFI
same,"pERK relative expression, FOLD",[1]; AML03-330,0.97 FOLD
same,"pSTAT5 relative expression, FOLD",[1]; AML03-330,1.04 FOLD
same,pSTAT5 FOLD,[1]; AML03-330,1.02
same,"pERK relative expression, MFI",[1]; AML03-331,1814 MFI
same,"pSTAT5 relative expression, MFI",[1]; AML03-331,1899 MFI
same,pStat5 (MFI),[1]; AML03-331,2344 MFI
same,"pERK relative expression, FOLD",[1]; AML03-331,0.94 FOLD
same,"pSTAT5 relative expression, FOLD",[1]; AML03-331,1.03 FOLD
same,pSTAT5 FOLD,[1]; AML03-331,1.02
same,"pERK relative expression, MFI",[1]; AML4,1091 MFI
same,"pSTAT5 relative expression, MFI",[1]; AML4,3442 MFI
same,pStat5 (MFI),[1]; AML4,3071 MFI
same,"pERK relative expression, FOLD",[1]; AML4,1.13 FOLD
same,"pSTAT5 relative expression, FOLD",[1]; AML4,0.95 FOLD
same,pSTAT5 FOLD,[1]; AML4,0.85
same,"pERK relative expression, MFI",[1]; AML16,2510 MFI
same,"pSTAT5 relative expression, MFI",[1]; AML16,17405 MFI
same,pStat5 (MFI),[1]; AML16,13885 MFI
same,"pERK relative expression, FOLD",[1]; AML16,0.44 FOLD
same,"pSTAT5 relative expression, FOLD",[1]; AML16,0.88 FOLD
same,pSTAT5 FOLD,[1]; AML16,0.70
same,"pERK relative expression, MFI",[1]; AML17,822 MFI
same,"pSTAT5 relative expression, MFI",[1]; AML17,3831 MFI
same,pStat5 (MFI),[1]; AML17,3091 MFI
same,"pERK relative expression, FOLD",[1]; AML17,0.99 FOLD
same,"pSTAT5 relative expression, FOLD",[1]; AML17,1.02 FOLD
same,pSTAT5 FOLD,[1]; AML17,1.01
same,"pERK relative expression, MFI",[1]; AML18,985 MFI
same,"pSTAT5 relative expression, MFI",[1]; AML18,4716 MFI
same,pStat5 (MFI),[1]; AML18,4188 MFI
same,"pERK relative expression, FOLD",[1]; AML18,0.99 FOLD
same,"pSTAT5 relative expression, FOLD",[1]; AML18,0.86 FOLD
same,pSTAT5 FOLD,[1]; AML18,1.02
same,"pERK relative expression, MFI",[1]; AML34,2315 MFI
same,pStat5 (MFI),[1]; AML34,10444 MFI
same,"pERK relative expression, FOLD",[1]; AML34,0.84 FOLD
same,pSTAT5 FOLD,[1]; AML34,1.43
same,"pERK relative expression, MFI",[1]; AML54,2163 MFI
same,pStat5 (MFI),[1]; AML54,4818 MFI
same,"pERK relative expression, FOLD",[1]; AML54,0.94 FOLD
same,pSTAT5 FOLD,[1]; AML54,0.89
same,downstream signalling (pSTAT5) in human AML cells,[1]; result in words,blocked downstream signalling
same,CC50 at 10 days,"[2]; normal human CD34-positive HSPCs, clonogenic assay 10 days, Mean ± SEM",23 ± 5.72 µM
same,CC50 at 10 days,[2]; sample 06-02-2018 CD34,8.8 µM
same,CC50 at 10 days,[2]; sample 10-03-2018 CD34,9.85 µM
same,CC50 at 10 days,[2]; sample 18/03/2016 CD34,7.09 µM
same,CC50 at 10 days,[2]; sample 21-04-2018 CD34,7.34 µM
same,CC50 at 10 days,[2]; sample 22/05/2018 CD34,17.2 µM
same,CC50 at 10 days,[2]; sample 24/06/2016 CD34,11.3 µM
